Experiments:
[1] = Plasma concentration expressed as area under curve after intravenous administration was determined in rat; type: ADME, organism-based
[2] = Half life of compound determined after intravenous administration to rat; type: ADME, organism-based; details: in vivo
[3] = tested on: Candida albicans; experiment: Antifungal activity expressed as inhibitory concentration against Candida albicans CY1002 in calf serum; type: functional, organism-based
[4] = target: T1, Peptide N-myristoyltransferase (Homo sapiens, UniProt P30419+O60551); experiment: Inhibitory activity against human N-Myristoyltransferase (HsNmt) assessed as inhibitory concentration using substrate peptide and myristotyl-CoA at 0.5 uM; type: protein assay
T1 sequence (P30419 whole entry): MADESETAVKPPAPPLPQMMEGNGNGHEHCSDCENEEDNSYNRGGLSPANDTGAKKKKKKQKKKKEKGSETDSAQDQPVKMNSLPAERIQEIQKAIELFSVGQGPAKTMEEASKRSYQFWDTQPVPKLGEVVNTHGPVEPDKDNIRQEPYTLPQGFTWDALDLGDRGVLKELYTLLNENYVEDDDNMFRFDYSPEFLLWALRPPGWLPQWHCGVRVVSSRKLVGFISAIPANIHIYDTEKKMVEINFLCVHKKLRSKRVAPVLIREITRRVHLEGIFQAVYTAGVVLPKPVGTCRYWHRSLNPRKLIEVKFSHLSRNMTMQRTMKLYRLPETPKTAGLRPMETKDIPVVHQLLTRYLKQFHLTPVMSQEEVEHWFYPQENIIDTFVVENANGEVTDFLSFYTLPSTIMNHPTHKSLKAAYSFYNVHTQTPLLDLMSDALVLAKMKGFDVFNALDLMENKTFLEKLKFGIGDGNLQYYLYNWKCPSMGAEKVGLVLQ
T1 sequence (O60551 whole entry): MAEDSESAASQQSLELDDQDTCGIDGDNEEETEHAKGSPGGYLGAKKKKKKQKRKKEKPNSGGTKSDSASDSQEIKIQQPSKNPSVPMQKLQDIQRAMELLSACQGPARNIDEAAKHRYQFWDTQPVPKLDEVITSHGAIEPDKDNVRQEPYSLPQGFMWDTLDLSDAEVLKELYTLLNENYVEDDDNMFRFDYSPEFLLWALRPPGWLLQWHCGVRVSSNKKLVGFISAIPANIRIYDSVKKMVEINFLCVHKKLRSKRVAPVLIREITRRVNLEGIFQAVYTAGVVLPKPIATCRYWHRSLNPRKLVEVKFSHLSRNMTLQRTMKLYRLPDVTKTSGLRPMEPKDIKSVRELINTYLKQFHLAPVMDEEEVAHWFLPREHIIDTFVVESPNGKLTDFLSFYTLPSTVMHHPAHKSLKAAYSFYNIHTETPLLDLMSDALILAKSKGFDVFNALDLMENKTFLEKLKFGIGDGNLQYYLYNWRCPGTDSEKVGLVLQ

[5] = tested on: Candida albicans; experiment: Antifungal activity expressed as inhibitory concentration against Candida albicans CY1002 in YNBPB medium; type: functional, organism-based
[6] = target: Candida albicans N-myristoyltransferase (Candida albicans); experiment: Inhibitory activity against Candida albicans N-Myristoyltransferase (CaNmt) assessed as inhibitory concentration using substrate peptide and myristotyl-CoA at 0.5 uM
[7] = tested on: Rattus norvegicus; experiment: Effective dose required against Candida albicans for 50% survival on intravenous administration in rats; type: functional
[8] = tested on: Candida albicans; experiment: Antifungal activity expressed as inhibitory concentration against Candida albicans in calf serum; type: functional, organism-based
[9] = target: Candida albicans N-myristoyltransferase (Candida albicans); experiment: Inhibitory activity against Candida albicans (Nmt) assessed as inhibitory concentration (nM)
[10] = target: Candida albicans N-myristoyltransferase (Candida albicans); experiment: Inhibitory activity against Candida albicans (Nmt) assessed as inhibitory concentration
[11] = target: Candida albicans N-myristoyltransferase (Candida albicans); experiment: Inhibitory activity against Candida albicans N-Myristoyltransferase (Nmt)

Structure (SMILES): Cc1c(CCc2ccccc2)oc2cccc(OCCCNCc3cccnc3)c12
- AUC [1]: 290 ng·h/mL
- half-life [2]: 66 min
- IC50 [3]: > 240000 nM
- IC50 [4]: 12 µM
- IC50 [5]: 13000 nM
- IC50 [6]: 1.2 µM

Structure (SMILES): CCOC(=O)c1oc2cccc(OCCCNCc3cccnc3)c2c1C
- AUC [1]: 330 ng·h/mL
- half-life [2]: 24 min
- IC50 [4]: > 450 µM

Structure (SMILES): Cc1c(COc2ccc(F)c(F)c2F)oc2cccc(OCCCNCc3cccnc3)c12
- AUC [1]: 330 ng·h/mL
- half-life [2]: 120 min
- IC50 [3]: 330 nM
- ED50 [7]: 7.1 mg/kg
- IC50 [5]: 35 nM

Structure (SMILES): Cc1c(COc2ccc(Cl)cc2)oc2cccc(OCCCNCc3cccnc3)c12
- AUC [1]: 330 ng·h/mL
- half-life [2]: 144 min
- IC50 [3]: 6600 nM
- IC50 [4]: > 110 µM
- IC50 [5]: 920 nM
- IC50 [6]: 0.073 µM

Structure (SMILES): OC(Cn1cncn1)(Cn1cncn1)c1ccc(F)cc1F [FLUCONAZOLE]
- AUC [1]: 19.6 ng·h/mL
- half-life [2]: 240 min
- IC50 [3]: 500 nM
- IC50 [8]: 500 nM

Structure (SMILES): Cc1c(COc2ccccc2C#N)oc2cccc(OCCCNCc3cccnc3)c12
- AUC [1]: 280 ng·h/mL
- half-life [2]: 30 min
- IC50 [3]: 3300 nM
- IC50 [4]: 19 µM
- IC50 [5]: 1200 nM
- IC50 [6]: 0.017 µM

Structure (SMILES): Cc1c(COc2cccc(F)c2F)oc2cccc(OCCCNCc3cccnc3)c12
- AUC [1]: 500 ng·h/mL
- half-life [2]: 114 min
- IC50 [3]: 570 nM
- IC50 [5]: 80 nM

Structure (SMILES): Cc1c(COc2ccc(Br)cc2F)oc2cccc(OCCCNCc3cccnc3)c12
- AUC [1]: 360 ng·h/mL
- half-life [2]: 216 min
- IC50 [3]: 1300 nM
- IC50 [4]: > 400 µM
- ED50 [7]: > 30 mg/kg
- IC50 [5]: 74 nM
- IC50 [6]: 0.028 µM

Structure (SMILES): Cc1c(COc2ccc(F)cc2F)oc2cccc(OCCCNCc3cccnc3)c12
- AUC [1]: 420 ng·h/mL
- half-life [2]: 96 min
- IC50 [3]: 340 nM
- IC50 [4]: > 450 µM
- ED50 [7]: 7.1 mg/kg
- IC50 [5]: 30 nM
- IC50 [9]: 7.5 nM
- IC50 [6]: 0.0075 µM

Structure (SMILES): Cc1c(COc2ccccc2F)oc2cccc(OCCCNCc3cccnc3)c12
- AUC [1]: 560 ng·h/mL
- half-life [2]: 96 min
- IC50 [3]: 600 nM
- IC50 [4]: > 470 µM
- IC50 [5]: 40 nM
- IC50 [10]: 8.3 nM
- IC50 [6]: 0.0083 µM

Structure (SMILES): Cc1c(CSc2ccccc2)oc2cccc(OCCCNCc3cccnc3)c12
- AUC [1]: 390 ng·h/mL
- half-life [2]: 84 min
- IC50 [3]: 180000 nM
- IC50 [5]: 11000 nM

Structure (SMILES): Cc1c(COc2cccc(F)c2)oc2cccc(OCCCNCc3cccnc3)c12
- AUC [1]: 370 ng·h/mL
- half-life [2]: 90 min
- IC50 [3]: 3300 nM
- IC50 [4]: > 110 µM
- IC50 [5]: 110 nM
- IC50 [6]: 0.11 µM

Structure (SMILES): Cc1c(C(=O)Nc2ccccc2)oc2cccc(OCCCNCc3cccnc3)c12
- AUC [1]: 240 ng·h/mL
- half-life [2]: 54 min
- IC50 [4]: > 480 µM
- IC50 [5]: 12000 nM
- IC50 [6]: 2.2 µM

Structure (SMILES): Cc1c(COc2ccccc2)oc2cccc(OCCCNCc3cccnc3)c12
- AUC [1]: 670 ng·h/mL
- half-life [2]: 114 min
- IC50 [4]: 77 µM
- IC50 [5]: 370 nM
- IC50 [6]: 0.072 µM

Structure (SMILES): Cc1c(COc2ccc(F)cc2)oc2cccc(OCCCNCc3cccnc3)c12
- AUC [1]: 340 ng·h/mL
- half-life [2]: 114 min
- IC50 [3]: 700 nM
- IC50 [4]: 67 µM
- IC50 [5]: 21 nM
- IC50 [9]: 5.2 nM
- IC50 [6]: 0.0052 µM

Structure (SMILES): Cc1c(COc2ccc(C#N)cc2)oc2cccc(OCCCNCc3cccnc3)c12
- AUC [1]: 340 ng·h/mL
- half-life [2]: 72 min
- IC50 [3]: 1400 nM
- IC50 [4]: > 460 µM
- IC50 [5]: 160 nM
- IC50 [11]: 9.4 nM
- IC50 [6]: 0.0094 µM

Reference: ChEMBL document CHEMBL1135839, “Design and synthesis of novel benzofurans as a new class of antifungal agents targeting fungal N-myristoyltransferase. Part 2” (Bioorg Med Chem Lett, 2002)
